For this test, the system named is PPK2. The settings on record: 1 mM Pi. The text has this: PPK2 has been detected in crude cell extracts of K.pneumoniae and E. coli.

The source of these data is patent publication US20020081686A1 (priority 1999, published 2002).

On to phosphate, for which the “inhibition of PPK2” value is recorded as “about 90%”.
